Data reported in US5336485A, “Method for protecting animals against tacrine induced cytotoxic injury using sterol compounds” (priority 1993, dated 1994).
Where a name gives a salt, the structure may show the parent alone.

Columns and labels:
male Sprague-Dawley rats = assay: CCl4 induced lethality in rats; assay type: in vivo, rat; conditions: for Survival after CCl4 treatment: 100 mg/kg ip 24 h prior, […] CCl4 oral
liver [1] = assay: CCl4 induced hepatotoxicity in rats (serum AST/ALT); assay type: in vivo, rat
In short: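 Male Sprague-Dawley rats received test compounds i.p. at 100 mg/kg 20–24 h before oral CCl4 (2.9 g/kg or 1 g/kg). Serum AST and ALT were measured 48 h after CCl4 challenge.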

liver [2] = assay: Acetaminophen-induced hepatotoxicity in rats (AST/ALT); assay type: in vivo, rat
Experimental: In vivo experiments were performed to determine if alpha-TS administration protects the liver from the hepatotoxic effects of acetaminophen. Acetaminophen is a commonly used analgesic that is metabolized to a reactive intermediate. […] The other group of male Sprague-Dawley rats received only the acetaminophen challenge. Forty eight hours after the challenge the rats were sacrificed and the levels of aspartate aminotransferase (AST) and alanine aminotransferase (ALT) were measured.
FIGS. 10 and 11 show the results of in vivo experiments where male Sprague-Dawley rats were given an oral dose of 15 or 30 mg THA/kg body weight, respectively. In the experiments, one group of rats was provided with an i.p. dose of 100 mg cholesteryl succinate tris salt/kg body weight 20 hours prior to the THA challenge, another group of rats only received the THA challenge, and the last group of rats acted as a control and were not challenged. The serum AST levels were determined with respect to time after the THA challenge.

[3] = test system: L1210 murine leukemia cells; assay: Inhibition of L1210 leukemia cell growth in vitro; assay type: cell-based, mouse
Experimental: Similar in vitro experiments were conducted with cholesteryl succinate tris salt and alpha-TS tris salt.

rat hepatocytes = assay: Intracellular K+ of rat hepatocytes exposed to EMS; assay type: cell-based
Text: Medzhradsky, Biochem. Med. 13:164 (1975), has noted that the cell's ability to maintain its intracellular concentration of potassium (K^+) is an excellent indicator of the metabolic integrity of the cell. A concentration gradient exists for K^+ with greater concentrations found intracellularly. To maintain this gradient, the cell is dependent on the action of the Na^+ -K^+ ATPase pump and an adequate supply of ATP. As cellular ATP levels decline, the ATPase pump is unable to maintain the gradient resulting in the loss of intracellular K^+ by equilibration with the extracellular space. Because the maintenance of cellular metabolic processes is essential to the continual repair and survival of cells, organ systems, and organisms, the effect of alpha-TS on the metabolic integrity of rat liver cells during a toxic insult was investigated by measuring intracellular K^+ levels. […] At each time-point, rapid separation of viable from non-viable hepatocytes and medium was accomplished by the dibutyl phthalate centrifugation method. Cell viability was monitored hourly by measuring LDH leakage with a Cobas Analyzer and intracellular [K^+ ]with a flame photometer. […] Lipid peroxidation was determined by measuring TBA reactants in the medium. […] Alltech, Avondale, Pa.). […] Following the addition of 0.2 ml 4 M HC1, the neutralized KOH-MeOH extracted with 0.8 ml hexane. […] A standard curve for each tocopherol congener was run with every assay. […] Only viable cells were monitored in the laboratory procedures.

[4] = test system: platelet phospholipase A2; conditions: cited from earlier work
[5] = test system: mouse neuroblastoma cells NBP2; conditions: 10 μM; cited from earlier work
[6] = 50 mg/kg ip, 48 h after 1 g/kg CCl4 (Table 28)
[7] = 100 mg/kg ip 20 h prior, 48 h after 1 g/kg CCl4 (Table 20)
[8] = 100 mg/kg ip (dihydrocholesterol 80 + sodium sulfate 30 mg/kg), 48 h after 1 g/kg CCl4 (Table 35)
[9] = 100 mg/kg ip, 30 min after CCl4 1 g/kg (Table 29)
[10] = 100 mg/kg ip, 30 min prior to CCl4 1 g/kg (Table 29)
[11] = 100 mg/kg ip, 20 hours prior to CCl4 1 g/kg (Table 29)
[12] = 100 mg/kg ip, 48 h after 1 g/kg CCl4 (Table 28)
[13] = 100 mg/kg ip, 48 h after 1 g/kg CCl4 (Table 31)
[14] = 100 mg/kg ip, 48 h after 1 g/kg CCl4 (Table 37)
[15] = 100 mg/kg ip, 48 h after 1 g/kg CCl4 (Table 40)
[16] = 100 mg/kg ip, PEG 400 vehicle, 48 h after 1 g/kg CCl4 (Table 34)
[17] = 100 mg/kg ip, immediately prior to CCl4 1 g/kg (Table 29)
[18] = 100 mg/kg oral 20 h prior, 48 h after 1 g/kg CCl4 (Table 20)
[19] = 200 mg/kg ip, 48 h after 1 g/kg CCl4 (Table 28)
[20] = PEG 400 vehicle, ip 20 h prior, 24 hrs after 2 g/kg CCl4 (Table 32)
[21] = PEG 400 vehicle, ip 20 h prior, 48 hrs after 2 g/kg CCl4 (Table 32)
[22] = PEG 400 vehicle, ip 20 h prior, 72 hrs after 2 g/kg CCl4 (Table 32)
[23] = 100 mg/kg ip 20 hrs prior, 48 h after 2 g/kg AP (Table 23)
[24] = 100 mg/kg ip 20 h prior, 48 h after 1 g/kg CCl4 (Table 27), listed as Alpha Tocopheryl Succinate free acid
[25] = rat plasma, 100 mg/kg ip 24 h prior, 48 h after […] CCl4
[26] = 100 mg/kg ip 24 h prior, acetaminophen 2.5 g/kg

CC(C)CCC[C@@H](C)[C@H]1CC[C@H]2[C@@H]3CC=C4C[C@@H](OC(=O)CCC(=O)O)CC[C@]4(C)[C@H]3CC[C@]12C [Cholesteryl Succinate tris salt]
Survival after CCl4 treatment (male Sprague-Dawley rats): Yes | ALT (liver [1]; [6]): 0.16 ± 0.11 10^3 units/L | AST (liver [1]; [6]): 0.56 ± 0.35 10^3 units/L | Serum AST Levels (liver [1]; 100 mg/kg ip 20 h prior, 24 hrs after 2 g/kg CCl4 (Table 26), tris salt): 0.57 ± 0.38 10^3 units/L | ALT (liver [1]; [7]): 0.122 ± 0.034 10^3 units/L | AST (liver [1]; [7]): 0.41 ± 0.08 10^3 units/L | Serum AST Levels (liver [1]; 100 mg/kg ip 20 h prior, 48 hrs after 2 g/kg CCl4 (Table 26), tris salt): 0.19 ± 0.07 10^3 units/L | ALT (liver [1]; [8]): 0.04 ± 0.02 10^3 units/L | AST (liver [1]; [8]): 0.22 ± 0.06 10^3 units/L | ALT (liver [1]; [9]): 1.50 ± 0.79 10^3 units/L | AST (liver [1]; [9]): 7.87 ± 4.09 10^3 units/L | ALT (liver [1]; [10]): 2.12 ± 1.43 10^3 units/L | AST (liver [1]; [10]): 9.09 ± 4.38 10^3 units/L | ALT (liver [1]; [11]): 0.04 ± 0.01 10^3 units/L | AST (liver [1]; [11]): 0.12 ± 0.02 10^3 units/L | ALT (liver [1]; [12]): 0.04 ± 0.02 10^3 units/L | AST (liver [1]; [12]): 0.22 ± 0.06 10^3 units/L | ALT (liver [1]; [13]): 0.02 ± 0 10^3 units/L | AST (liver [1]; [13]): 0.10 ± 0.03 10^3 units/L | ALT (liver [1]; [14]): 0.09 ± 0.01 10^3 units/L | AST (liver [1]; [14]): 0.21 ± 0.03 10^3 units/L | ALT (liver [1]; [15]): 0.04 ± 0.01 10^3 units/L | AST (liver [1]; [15]): 0.12 ± 0.02 10^3 units/L | ALT (liver [1]; [16]): 0.07 ± 0.03 10^3 units/L | AST (liver [1]; [16]): 0.29 ± 0.22 10^3 units/L | ALT (liver [1]; [17]): 1.12 ± 1.38 10^3 units/L | AST (liver [1]; [17]): 6.69 ± 1.87 10^3 units/L | SGOT Levels (liver [1]; 100 mg/kg ip, 48 h after 1.0 g/kg CCl4): 0.10 ± 0.03 10^3 units/L | ALT (liver [1]; [18]): 4.09 ± 1.191 10^3 units/L | AST (liver [1]; [18]): 12.51 ± 41.31 10^3 units/L | ALT (liver [1]; [19]): 0.03 ± 0.01 10^3 units/L | AST (liver [1]; [19]): 0.16 ± 0.08 10^3 units/L | Serum AST Levels (liver [1]; [20]): .19 ± .10 10^3 units/L | Serum AST Levels (liver [1]; [21]): .10 ± .02 10^3 units/L | Serum AST Levels (liver [1]; [22]): .10 ± .02 10^3 units/L | inhibition in vivo at 100 mg/kg (liver [1]; Rattus norvegicus, ip, 48 h, read-out: % Hepatoprotection): 100% | protection against CCl4 hepatotoxicity (in words) (liver [1]; rats, serum enzyme levels): complete protection | Serum ALT Level (liver [2]; [23]): 158 ± 77 Units/L | Serum AST Level (liver [2]; [23]): 785 ± 495 Units/L | growth rate of L1210 cells (FIG. 7) [3]: significantly suppress the growth rate of L1210 cells

Cc1c(C)c2c(c(C)c1OC(=O)CCC(=O)O)CC[C@@](C)(CCC[C@H](C)CCC[C@H](C)CCCC(C)C)O2 [alpha-TS, d-alpha-tocopheryl succinate]
% Initial Intracellular [K+] (rat hepatocytes; 50 mM EMS + 25 μM alpha-TS): 93 ± 11 % Initial | % Initial Intracellular [K+] (rat hepatocytes; 50 mM EMS + 25 μM alpha-TS + 100 μM Bis-(p-nitrophenyl) phosphate): 14 ± 6 % Initial | % Initial Intracellular [K+] (rat hepatocytes; 50 mM EMS + 25 μM alpha-TS + 100 μM Diethyl p-nitrophenyl phosphate): 26 ± 2 % Initial | % Initial Intracellular [K+] (rat hepatocytes; 50 mM EMS, 5 Hrs, concentrations as cell death (Table 15)): 86 ± 6 % Initial | intracellular K+ during EMS insult (rat hepatocytes; rat hepatocytes, 25 μM, 50 mM EMS): no loss of intracellular K+ | Survival after CCl4 treatment (male Sprague-Dawley rats): Yes | Protection from CCl4 (male Sprague-Dawley rats; 100 mg/kg ip (Table 5)): Yes | Days Survived after CCl4 (male Sprague-Dawley rats; 100 mg/kg ip, 1 hour after CCl4 and daily thereafter): 2 days | Days Survived after CCl4 (male Sprague-Dawley rats; 100 mg/kg ip, 1 hour prior and daily thereafter): > 7 days | Days Survived After CCl4 Treatment (male Sprague-Dawley rats; 100 mg/kg ip, 24 h prior, CCl4 3.8 g/kg): > 7 days | Days Survived After CCl4 Treatment (male Sprague-Dawley rats; 100 mg/kg ip, 24 h prior, CCl4 5.0 g/kg): 2 days | Days Survived After CCl4 Treatment (male Sprague-Dawley rats; 100 mg/kg ip, 24 h prior, CCl4 […]): > 7 days | Days Survived after CCl4 (male Sprague-Dawley rats; 100 mg/kg ip, single dose 24 h prior to CCl4 […]): > 7 days | cytoprotection against CCl4 lethality (male Sprague-Dawley rats; 100 mg/kg oral): not observed | Protection from CCl4 (male Sprague-Dawley rats; 100 mg/kg oral (Table 5)): No | Days Survived After CCl4 Treatment (male Sprague-Dawley rats; 100 mg/kg oral, 24 h prior, CCl4 2.2 g/kg): > 7 days | Days Survived After CCl4 Treatment (male Sprague-Dawley rats; 100 mg/kg oral, 24 h prior, CCl4 3.8 g/kg): 2 days | Days Survived After CCl4 Treatment (male Sprague-Dawley rats; 100 mg/kg oral, 24 h prior, CCl4 5.0 g/kg): 2 days | Days Survived After CCl4 Treatment (male Sprague-Dawley rats; 100 mg/kg oral, 24 h prior, CCl4 […]): 3 days | Days Survived After CCl4 Treatment (male Sprague-Dawley rats; 25 m/kg, single dose 24 h prior): > 7 days | incubation time required for cytoprotection (male Sprague-Dawley rats; single dose): greater than 12 hours | ALT (liver [1]; [24]): 1.08 ± 0.23 10^3 units/L | AST (liver [1]; [24]): 2.06 ± 0.53 10^3 units/L | Serum AST Levels (liver [1]; [20]): .38 ± .15 10^3 units/L | Serum AST Levels (liver [1]; [21]): .39 ± .22 10^3 units/L | Serum AST Levels (liver [1]; [22]): .14 ± .06 10^3 units/L | ALT (liver [1]; [25]): 631 ± 17 Units/L | AST (liver [1]; [25]): 3,430 ± 1500 Units/L | ALT (liver [2]; [26]): 432 ± 188 Units/L | AST (liver [2]; [26]): 1,659 ± 607 Units/L | minimal effective concentration ([3]; Mus musculus, L1210, free acid, 72 hours, read-out: concentration that significantly suppresses growth rate of L1210 cells): > 100 µM | inhibition of platelet phospholipase A2 activity [4]: inhibits platelet phospholipase A2 activity | tumor cell growth [5]: inhibits tumor cell growth
